From patent US7238716B2, “Alkanoic acid derivatives process for their production and use thereof” (Takeda Pharmaceuticals Company Limited, priority 2000, dated 2007)

Row | SMILES | melting point [°C]
1 | Cc1oc(-c2ccccc2)nc1/C=C/c1ccc(COc2ccccc2CC(=O)O)cc1 [Example 95, 2-[2-[4-[(E)-2-(5-methyl-2-phenyl-4-oxazolyl)ethenyl]benzyloxy]phenyl]acetic acid] | 189 to 190
2 | Cc1oc(-c2ccccc2)nc1CCc1nc(COc2cccc(CC(=O)O)c2)cs1 [Example 105, 2-[3-[[2-[2-(5-methyl-2-phenyl-4-oxazolyl)ethyl]-4-thiazolyl]methoxy]phenyl]acetic acid] | 153 to 154
3 | Cc1oc(-c2ccccc2)nc1COc1cccc(CSc2cccc(CCC(=O)O)c2)c1 [Example 140, 3-[3-[3-[(5-methyl-2-phenyl-4-oxazolyl)methoxy]benzylthio]phenyl]propionic acid] | 120 to 121
4 | COC(=O)Cc1ccccc1OCc1ccc(OCc2nc(-c3ccccc3)sc2C)nc1 [Example 121, methyl 2-[2-[[6-[(5-methyl-2-phenyl-4-thiazolyl)methoxy]-3-pyridyl]methoxy]phenyl]acetate] | 119 to 120
5 | COC(=O)Cc1ccccc1OCc1cc(OCCc2nc(-c3ccccc3)sc2C)no1 [Example 116, methyl 2-[2-[[3-[2-(5-methyl-2-phenyl-4-thiazolyl)ethoxy]-5-isoxazolyl]methoxy]phenyl]acetate] | 80 to 81
6 | Cc1oc(-c2ccccc2)nc1COc1ccccc1COc1cccc(CC(=O)O)c1 [Example 34, 2-[3-[2-[(5-methyl-2-phenyl-4-oxazolyl)methoxy]benzyloxy]phenyl]acetic acid] | 104 to 105
7 | CCOC(=O)C=Cc1c(OCc2ccc(OCc3nc(-c4ccccc4)oc3C)cc2)ccc2ccccc12 [Example 54, ethyl 3-(2-(4-((5-methyl-2-phenyl-4-oxazolyl)methoxy)benzyloxy)-1-naphthyl)-2-propenoate] | 73 to 74
8 | Cc1oc(-c2ccccc2)nc1CCc1noc(COc2cccc(CC(=O)O)c2)n1 [Example 109, 2-[3-[[3-[2-(5-methyl-2-phenyl-4-oxazolyl)ethyl]-1,2,4-oxadiazol-5-yl]methoxy]phenyl]acetic acid] | 93 to 94
9 | Cc1oc(-c2ccccc2)nc1COc1ccc(CSc2ccc(CCC(=O)O)cc2)cc1 [Example 67, 3-[4-[[4-[(5-methyl-2-phenyl-4-oxazolyl)methoxy]benzyl]sulfanyl]phenyl]propionic acid] | 157 to 158
10 | CCOC(=O)CCc1c(OCc2ccc(OCc3nc(-c4ccccc4)oc3C)cc2)ccc2ccccc12 [Example 46, ethyl 3-[2-[4-[(5-methyl-2-phenyl-4-oxazolyl)methoxy]benzyloxy]-1-naphthyl]propionate] | 86 to 87
11 | Cc1sc(-c2ccccc2)nc1COc1cc(COc2ccccc2CC(=O)O)on1 [Example 114, 2-[2-[[3-[(5-methyl-2-phenyl-4-thiazolyl)methoxy]-5-isoxazolyl]methoxy]phenyl]acetic acid] | 147 to 148
12 | Cc1oc(-c2ccccc2)nc1COc1cccc(CSc2cccc(CC(=O)O)c2)c1 [Example 139, 2-[3-[3-[(5-methyl-2-phenyl-4-oxazolyl)methoxy]benzylthio]phenyl]acetic acid] | 81 to 82

Continued, values first:

Row | melting point [°C] | SMILES
13 | 160 to 161 | COC(=O)Cc1cc(OC)ccc1OCc1ccc(OCc2nc(-c3ccccc3)oc2C)cc1 [Example 23, methyl 2-[5-methoxy-2-[4-[(5-methyl-2-phenyl-4-oxazolyl)methoxy]benzyloxy]phenyl]acetate]
14 | 122 to 123 | CCOc1ccc(OCc2ccc(OCc3nc(-c4ccccc4)oc3C)cc2)cc1CC(=O)O [Example 5, 2-[2-ethoxy-5-[4-[(5-methyl-2-phenyl-4-oxazolyl)methoxy]benzyloxy]phenyl]acetic acid]
15 | 90 to 91 | CCOC(=O)CCc1cccc(OCc2ccc(OCc3nc(-c4ccccc4)oc3C)cc2)c1 [Example 2, ethyl 3-[3-[4-[(5-methyl-2-phenyl-4-oxazolyl)methoxy]benzyloxy]phenyl]propionate]
16 | 194 to 195 | Cc1oc(-c2ccccc2)nc1COc1ccc(COc2ccc(O)cc2CC(=O)O)cc1 [Example 16, 2-[5-hydroxy-2-[4-[(5-methyl-2-phenyl-4-oxazolyl)methoxy]benzyloxy]phenyl]acetic acid]
17 | 112 to 113 | CCOc1cc(OCc2ccccc2OCc2nc(-c3ccccc3)oc2C)ccc1CCC(=O)O [Example 73, 3-[2-ethoxy-4-[2-[(5-methyl-2-phenyl-4-oxazolyl)methoxy]benzyloxy]phenyl]propionic acid]
18 | 141 to 142 | Cc1oc(-c2ccccc2)nc1COc1cncc(COc2ccc(CC(=O)O)cc2)c1 [Example 75, 2-[4-[5-[(5-methyl-2-phenyl-4-oxazolyl)methoxy]-3-pyridylmethoxy]phenyl]acetic acid]
19 | 115 to 116 | CCCc1oc(-c2ccccc2)nc1COc1ccc(COc2cccc(CC(=O)O)c2)cc1 [Example 87, 2-[3-[4-[(2-phenyl-5-propyl-4-oxazolyl)methoxy]benzyloxy]phenyl]acetic acid]
20 | 139 to 140 | Cc1oc(-c2ccccc2)nc1COc1ccc(COc2cncc(CC(=O)O)c2)cc1 [Example 38, 2-[5-[4-[(5-methyl-2-phenyl-4-oxazolyl)methoxy]benzyloxy]-3-pyridyl]acetic acid]
21 | 173 to 174 | Cc1oc(-c2ccccc2)nc1COc1ccccc1COc1ccc(CC(=O)O)cc1 [Example 69, 2-[4-[2-[(5-methyl-2-phenyl-4-oxazolyl)methoxy]benzyloxy]phenyl]acetic acid]
22 | 117 to 118 | Cc1oc(-c2ccccc2)nc1COc1cccc(COc2ccccc2CC(=O)O)c1 [Example 31, 2-[2-[3-[(5-methyl-2-phenyl-4-oxazolyl)methoxy]benzyloxy]phenyl]acetic acid]
23 | 111 to 112 | COC(=O)Cc1cc(-c2ccccc2)ccc1OCc1ccc(OCc2nc(-c3ccccc3)oc2C)cc1 [Example 21, methyl 2-[2-[4-[(5-methyl-2-phenyl-4-oxazolyl)methoxy]benzyloxy]-5-phenylphenyl]acetate]
24 | 140 to 141 | Cc1oc(-c2ccccc2)nc1COc1ccc(COc2ccc(OCc3ccccc3)cc2CC(=O)O)cc1 [Example 27, 2-[5-benzyloxy-2-[4-[(5-methyl-2-phenyl-4-oxazolyl)methoxy]benzyloxy]phenyl]acetic acid]
25 | 177 to 178 | Cc1oc(-c2ccccc2)nc1COc1ccc(COc2ccc(CCC(=O)O)cc2)cc1 [Example 45, 3-[4-[4-[(5-methyl-2-phenyl-4-oxazolyl)methoxy]benzyloxy]phenyl]propionic acid]
26 | 105 to 106 | CCOC(=O)CCc1ccc(OCc2ccc(OCc3nc(-c4ccccc4)oc3C)cc2)cc1 [Example 44, ethyl 3-[4-[4-[(5-methyl-2-phenyl-4-oxazolyl)methoxy]benzyloxy]phenyl]propionate]
27 | 161 to 162 | Cc1oc(-c2ccccc2)nc1COc1ccc(COc2ccc3ccccc3c2CCC(=O)O)cc1 [Example 47, 3-[2-[4-[(5-methyl-2-phenyl-4-oxazolyl)methoxy]benzyloxy]-1-naphthyl]propionic acid]
28 | 157 to 158 | Cc1oc(-c2ccccc2)nc1COc1ccc(COc2cccc(CCC(=O)O)c2)cc1 [Example 3, 3-[3-[4-[(5-methyl-2-phenyl-4-oxazolyl)methoxy]benzyloxy]phenyl]propionic acid]
